Assays:
Format in all cases: cell-based
Jurkat cells = test: NAD Elevation Assay (NAD Cellular Assay), Jurkat cells; conditions: 1 mM compound, 24 hours
Description: (§1) Compounds were tested in an NAD Cellular Assay according to the following protocol. Jurkat cells (50,000 per in 100 microliters of RPMI media) were added to wells of a 96 well, conical bottomed plate. The cells were allowed to recover for 3 h in culture. A 16 microliter aliquot of a 100 mM compound stock solution was diluted with 784 microliters of medium and 10% FBS to give 800 microliters of a 2 mM compound treatment solution. The compound treatment solution was added to the cells for a final concentration of 1 mM compound (n=6 wells for each compound.) As a parallel control, nicotinamide mononucleotide (NMN) was added to cells at a final concentration of 2 mM (n=6). The plates were incubated for 24 hours, then spun at 1000 rpm for 10 min. The medium was removed, then the cells were washed with fresh PBS and spun again. The PBS medium was removed, then the cells were washed one more time with PBS and spun. The liquid was removed from each well via pipette, avoiding touching the cell pellet. The cells were lysed with 75 microliters of 0.5% DTAB. […] The NAD concentration in each well was determined using a commercially available assay according to the kit instructions (e.g. Promega NAD/NADH-Glo™ Assay.) The Pierce BCA protein assay was run according to the kit instructions (e.g. ThermoScientific Catalog number 23225). […]

HEPG2 Cells = test: NAD Elevation Assay (NAD Cellular Assay), HEPG2 cells
Description: (§2) Compounds were tested in an NAD Cellular Assay according to the following protocol. Jurkat cells (50,000 per in 100 microliters of RPMI media) were added to wells of a 96 well, conical bottomed plate. The cells were allowed to recover for 3 h in culture. A 16 microliter aliquot of a 100 mM compound stock solution was diluted with 784 microliters of medium and 10% FBS to give 800 microliters of a 2 mM compound treatment solution. The compound treatment solution was added to the cells for a final concentration of 1 mM compound (n=6 wells for each compound.) As a parallel control, nicotinamide mononucleotide (NMN) was added to cells at a final concentration of 2 mM (n=6). The plates were incubated for 24 hours, then spun at 1000 rpm for 10 min. The medium was removed, then the cells were washed with fresh PBS and spun again. The PBS medium was removed, then the cells were washed one more time with PBS and spun. The liquid was removed from each well via pipette, avoiding touching the cell pellet. The cells were lysed with 75 microliters of 0.5% DTAB. 25 microliters of the lysate was added to each of two flat bottomed plates. One plate was used for a BCA protein assay (clear), and the other plate was used for the NAD assay (clear bottom, white walled). The NAD concentration in each well was determined using a commercially available assay according to the kit instructions (e.g. Promega NAD/NADH-Glo™ Assay.) The Pierce BCA protein assay was run according to the kit instructions (e.g. ThermoScientific Catalog number 23225). NAD levels were normalized to total protein and reported as a multiple of the NAD level in untreated cells.
(§3) Assays with other cell types were run similarly, using the appropriate compound and NMN dilutions. Cell counts were adjusted as necessary to provide a signal within the reading range of the protein and NAD assay kits.

NDF Cells = test: NAD Elevation Assay (NAD Cellular Assay), NDF cells; conditions: 0.25 mM compound
Description: as §2, §3

AML12 Cells = test: NAD Elevation Assay (NAD Cellular Assay), AML12 cells; conditions: at 0.4-2 mM compound
Description: as §1, with “again.” for “again. The PBS medium was removed, then the cells were washed one more time with PBS and spun. The liquid was removed from each well via pipette, avoiding touching the cell pellet. The cells were lysed with 75 microliters of 0.5% DTAB.”
as §3

Question: With `Cn1c(=O)c2c(ncn2CCOC(=O)c2ccc[n+]([C@@H]3O[C@H](CO)[C@@H](O)[C@H]3O)c2)n(C)c1=O.O=S(=O)([O-])C(F)(F)F` [Compound 2, 1-((2R,3R,4S,5R)-3,4-dihydroxy-5-(hydroxymethyl)tetrahydrofuran-2-yl)-3-((2-(1,3-dimethyl-2,6-dioxo-1,2,3,6-tetrahydro-7H-purin-7-yl)ethoxy)carbonyl)pyridin-1-ium trifluoromethanesulfonate] as the molecule, how does the “NAD Elevation Assay (NAD level normalized to total protein, multiple of the NAD level in untreated cells)” value (Jurkat cells) read?
Answer: 2.9x @1

Question: `Cn1c(=O)c2c(ncn2CCOC(=O)c2ccc[n+]([C@@H]3O[C@H](COP(=O)([O-])O)[C@@H](O)[C@H]3O)c2)n(C)c1=O` [Compound 2P, ((2R,3S,4R,5R)-5-(3-((2-(1,3-dimethyl-2,6-dioxo-1,2,3,6-tetrahydro-7H-purin-7-yl)ethoxy)carbonyl)pyridin-1-ium-1-yl)-3,4-dihydroxytetrahydrofuran-2-yl)methyl hydrogen phosphate] was tested. Which “NAD Elevation Assay (NAD level normalized to total protein, multiple of the NAD level in untreated cells)” value (HEPG2 Cells; 2 mM compound) did it give?
Answer: 1.6x @2

Question: How did the “NAD Elevation Assay (NAD level normalized to total protein, multiple of the NAD level in untreated cells)” value (NDF Cells) turn out when `Cn1c(=O)c2c(ncn2CC(=O)OCCCOC(=O)c2ccc[n+]([C@@H]3O[C@H](COP(=O)([O-])O)[C@@H](O)[C@H]3O)c2)n(C)c1=O` [Compound 6P, ((2R,3S,4R,5R)-5-(3-((3-(2-(1,3-dimethyl-2,6-dioxo-1,2,3,6-tetrahydro-7H-purin-7-yl)acetoxy)propoxy)carbonyl)pyridin-1-ium-1-yl)-3,4-dihydroxytetrahydrofuran-2-yl)methyl hydrogen phosphate] was run?
Answer: 2.0x @0.25

Question: For `CCn1c(=O)c2c(ncn2CCOC(=O)c2ccc[n+]([C@@H]3O[C@H](COP(=O)([O-])O)[C@@H](O)[C@H]3O)c2)n(CC)c1=O` [Compound 11P, ((2R,3S,4R,5R)-5-(3-((2-(1,3-diethyl-2,6-dioxo-1,2,3,6-tetrahydro-7H-purin-7-yl)ethoxy)carbonyl)pyridin-1-ium-1-yl)-3,4-dihydroxytetrahydrofuran-2-yl)methyl hydrogen phosphate], which “NAD Elevation Assay (NAD level normalized to total protein, multiple of the NAD level in untreated cells)” value (HEPG2 Cells; 2 mM compound) is on record?
Answer: 1.3x @2

Question: `CCCn1cnc2c1c(=O)n(CCOC(=O)c1ccc[n+]([C@@H]3O[C@H](COP(=O)([O-])O)[C@@H](O)[C@H]3O)c1)c(=O)n2C` [Compound 7P, ((2R,3S,4R,5R)-3,4-dihydroxy-5-(3-((2-(3-methyl-2,6-dioxo-7-propyl-2,3,6,7-tetrahydro-1H-purin-1-yl)ethoxy)carbonyl)pyridin-1-ium-1-yl)tetrahydrofuran-2-yl)methyl hydrogen phosphate] was tested. Which “NAD Elevation Assay (NAD level normalized to total protein, multiple of the NAD level in untreated cells)” value (NDF Cells) did it give?
Answer: 1.9x @0.25

Question: For `Cn1cnc2c1c(=O)n(CCNC(=O)c1ccc[n+]([C@@H]3O[C@H](COP(=O)([O-])O)[C@@H](O)[C@H]3O)c1)c(=O)n2C` [Compound 9P, ((2R,3S,4R,5R)-5-(3-((2-(3,7-dimethyl-2,6-dioxo-2,3,6,7-tetrahydro-1H-purin-1-yl)ethyl)carbamoyl)pyridin-1-ium-1-yl)-3,4-dihydroxytetrahydrofuran-2-yl)methyl hydrogen phosphate], which “NAD Elevation Assay (NAD level normalized to total protein, multiple of the NAD level in untreated cells)” value (HEPG2 Cells; 0.25 mM compound) is on record?
Answer: 1.9x @0.25

Question: How did the “NAD Elevation Assay (NAD level normalized to total protein, multiple of the NAD level in untreated cells)” value (HEPG2 Cells; 0.1 mM compound) turn out when `Cn1cnc2c1c(=O)n(CCOC(=O)c1ccc[n+]([C@@H]3O[C@H](COP(=O)([O-])O)[C@@H](O)[C@H]3O)c1)c(=O)n2C` [Compound 4, ((2R,3S,4R,5R)-5-(3-((2-(3,7-dimethyl-2,6-dioxo-2,3,6,7-tetrahydro-1H-purin-1-yl)ethoxy)carbonyl)pyridin-1-ium-1-yl)-3,4-dihydroxytetrahydrofuran-2-yl)methyl hydrogen phosphate] was run?
Answer: 2.1x @0.1

Question: Which “NAD Elevation Assay” value (AML12 Cells) does the source give for `Cn1cnc2c1c(=O)n(CCOC(=O)c1ccc[n+]([C@@H]3O[C@H](CO)[C@@H](O)[C@H]3O)c1)c(=O)n2C.O=S(=O)([O-])C(F)(F)F` [Compound 3, 1-((2R,3R,4S,5R)-3,4-dihydroxy-5-(hydroxymethyl)tetrahydrofuran-2-yl)-3-((2-(3,7-dimethyl-2,6-dioxo-2,3,6,7-tetrahydro-1H-purin-1-yl)ethoxy)carbonyl)pyridin-1-ium trifluoromethanesulfonate] here?
Answer: Active at 0.4-2

Question: How did the “NAD Elevation Assay” value (AML12 Cells) turn out when `Cn1cnc2c1c(=O)n(CC(=O)OCCCOC(=O)c1ccc[n+]([C@@H]3O[C@H](CO)[C@@H](O)[C@H]3O)c1)c(=O)n2C.O=S(=O)([O-])C(F)(F)F` [Compound 1, 1-((2R,3R,4S,5R)-3,4-dihydroxy-5-(hydroxymethyl)tetrahydrofuran-2-yl)-3-((3-(2-(3,7-dimethyl-2,6-dioxo-2,3,6,7-tetrahydro-1H-purin-1-yl)acetoxy)propoxy)carbonyl)pyridin-1-ium trifluoromethanesulfonate] was run?
Answer: Active at 0.4-2

Question: How did the “NAD Elevation Assay (NAD level normalized to total protein, multiple of the NAD level in untreated cells)” value (NDF Cells) turn out when `Cn1cnc2c1c(=O)n(CCCOC(=O)c1ccc[n+]([C@@H]3O[C@H](COP(=O)([O-])O)[C@@H](O)[C@H]3O)c1)c(=O)n2C` [Compound 5P, ((2R,3S,4R,5R)-5-(3-((3-(3,7-dimethyl-2,6-dioxo-2,3,6,7-tetrahydro-1H-purin-1-yl)propoxy)carbonyl)pyridin-1-ium-1-yl)-3,4-dihydroxytetrahydrofuran-2-yl)methyl hydrogen phosphate] was run?
Answer: 2.2x @0.25

— US20250066413A1, “COMPOSITIONS FOR TREATMENT OF INFLAMMATION” (Metro International Biotech, LLC, priority 2022, published 2025)
